The source of these data is patent publication US20140249167A1, “Administration of NEDD8-Activating Enzyme Inhibitor” (priority 2010, published 2014).

“Also recorded” adds a separate entry of the source.

Holding throughout (format): in vivo
Data set [1] deals with adults with advanced nonhematologic malignancies (solid tumors). Description: Study C15001, phase 1, four 21-day dose schedules. Particulars: for Findings: Prolonged stable disease in (tumor, cycles): as of Oct. 16, 2011; for DLTs occurred (Grade 3 LFTs): in vivo. Here is the method: Study C15001 is a first-in-human, phase 1 study in adults with advanced nonhematologic malignancies testing the tolerability of four 21-day dose schedules, including the following: Schedule A: QD×5; Schedule B: Days 1, 3, and 5 given with dexamethasone; and Schedule C: Days 1, 3, and 5 given without dexamethasone. Dose escalation is based on an adaptive approach using the continual reassessment method (CRM).
Schedule A (QD×5) testing started with 25 mg/m^2 and proceeded through 83 mg/m^2. Increases in liver function tests (LFTs) (AST, ALT, ALP and bilirubin) occurred during Cycle 1 following both single and multiple MLN4924 doses. LFT increases were dose limiting at doses exceeding 50 mg/m^2. Grade 3 and 4 LFT elevations occurred in 2 patients, who both died during the first week of study treatment. One death occurred in a patient with widely metastatic breast cancer receiving 61 mg/m^2, and the second occurred in a patient with advanced colon cancer receiving 83 mg/m^2. In both cases, the investigators assessed the hepatic toxicity as possibly related to MLN4924. As a result of these deaths and their association with increases in transaminase and bilirubin, all ongoing MLN4924 studies were amended to require that bilirubin levels be normal (<ULN) and that ALT and AST levels correspond with […] Grade 1 intensity before administering initial and all subsequent doses of MLN4924. LFTs are checked prior to administration of every dose.
The MTD for Study C15001 Schedule A was determined to be 50 mg/m^2 QD×5. […] Three DLTs have occurred on Schedule B (Grade 3 LFTs), and 2 DLTs have occurred on Schedule C (Grade 3 LFTs). The MTD for these dosing schedules was determined to be 50 mg/m^2 and 67 mg/m^2, respectively. […]
Study C15001 is a phase 1 study in adults with advanced nonhematologic malignancies testing the tolerability of four 21-day dose schedules, including one intermittent dosing schedule, Schedule D, on which doses are administered on Days 1, 8, and 15 as a 3-hour infusion. As of Oct. […] Patients have been enrolled to the following dose levels: 147 mg/m^2 and 196 mg/m^2. Testing continues, and dose escalation is based on an adaptive approach using the continual reassessment method (CRM). […]

Data set [2] concerns adults with lymphoma or multiple myeloma. As to the kind of experiment: Study C15002, phase 1, 3 dose schedules on a 21-day cycle. From the text: Study C15002 is a phase 1 study in adults with lymphoma or multiple myeloma testing 3 dose schedules, each repeated on a 21-day cycle. One such schedule is Schedule A: Days 1, 2, 8, and 9.
As used herein, “dose-limiting toxicity” (DLT) is defined as any of the following events that are considered by the administering physician to be related to therapy with MLN4924: • Grade 4 neutropenia (ANC<500 cells/mm^3) lasting more than 7 consecutive days • Grade 3 neutropenia with fever and/or infection, where fever is defined as an oral temperature[…] • Grade 4 thrombocytopenia (platelets<25,000/mm^3 but >10,000/mm^3) lasting more than 7 consecutive days • Grade 3 thrombocytopenia with bleeding • A platelet count<10,000/mm^3 at any time • Grade 3 or greater nausea and/or emesis despite the use of optimal anti-emetic prophylaxis (wherein “optimal anti-emetic prophylaxis” is defined as an anti-emetic regimen that employs a 5-HT3 antagonist given in standard doses and according to standard schedules). Dexamethasone should not be used because of its CYP3A-inducing effects. • Grade 3 or greater diarrhea that occurs despite maximal supportive therapy • An absolute reduction in LVEF of ≧10% to a value<50% (e.g., LVEF=45% in a patient with LVEF=55% at baseline) • A decrease in LVEF to <40% • An increase in PASP to >50 mm Hg or 3× baseline • Any other Grade 3 or greater nonhematologic toxicity with the following exceptions: • Grade 3 arthralgia/myalgia • Brief (<1 week) Grade 3 fatigue • Grade 3 fever that occurs in the absence of Grade 3 or worse neutropenia or documented infection following daily administration of MLN4924 • Treatment delay of more than 1 week because of a lack of adequate recovery of MLN4924-related hematological or nonhematologic toxicities • MLN4924-related toxicity that requires that any doses of MLN4924 are missed during a cycle or discontinuation of therapy with MLN4924
Study C15002 is a phase 1 study in adults with lymphoma or multiple myeloma testing 3 dose schedules, each repeated on a 21-day cycle. Two such schedules are intermittent dosing schedules, Schedule B: Days 1, 4, 8, and 11; and Schedule C: Days 1 and 8. As of Oct. […] Patients on Schedule B were enrolled to dose levels of 110 mg/m^2, 147 mg/m^2, 196 mg/m^2 and 261 mg/m^2 before the MTD was determined to be 196 mg/m^2. […]
(§1) Although DLTs can occur at any point during treatment, only DLTs occurring during Cycle 1 of treatment will necessarily influence decisions regarding dose escalation, expansion of a dose level, or evaluation of intermediate dose levels. Patients are monitored through all cycles of therapy for treatment-related toxicities.

The test system of data set [3] is adults with acute myelogenous leukemia and myelodysplastic syndrome. Description: Study C15003, phase 1, 3 dose schedules on a 21-day cycle.
For data set [4], the system named is adults with metastatic melanoma. As to the kind of experiment: Study C15005, phase 1 dose-escalation study. The protocol:
As used herein, “dose-limiting toxicity” (DLT) is defined as any of the following events that are considered by the administering physician to be related to therapy with MLN4924: • Grade 4 neutropenia (ANC<500 cells/mm^3) lasting more than 7 consecutive days • Grade 3 neutropenia with fever and/or infection, where fever is defined as an oral temperature[…] • Grade 4 thrombocytopenia (platelets<25,000/mm^3 but >10,000/mm^3) lasting more than 7 consecutive days • Grade 3 thrombocytopenia with bleeding • A platelet count<10,000/mm^3 at any time • Grade 3 or greater nausea and/or emesis despite the use of optimal anti-emetic prophylaxis (wherein “optimal anti-emetic prophylaxis” is defined as an anti-emetic regimen that employs a 5-HT3 antagonist given in standard doses and according to standard schedules). […]
Study C15005 is a phase 1, dose-escalation study in adults with metastatic melanoma testing MLN4924 dosing on Days 1, 4, 8, and 11 (Schedule A) or Days 1, 8 and 15 (Schedule B) repeated every 21 days. […] Patients were enrolled to dose levels of 50 mg/m^2, 67 mg/m^2, 89 mg/m^2, 118 mg/m^2, 157 mg/m^2, 209 mg/m^2 and 278 mg/m^2 before the MTD was determined to be 209 mg/m^2. […]
as §1

Where [5] appears, read: Schedule B: Days 1, 4, 8, 11, at 147 mg/m^2.

Take `NS(=O)(=O)OC[C@@H]1C[C@@H](n2ccc3c(N[C@H]4CCc5ccccc54)ncnc32)C[C@@H]1O` [MLN4924, ((1S,2S,4R)-4-(4-((1S)-2,3-dihydro-1H-inden-1-ylamino)-7H-pyrrolo[2,3-d]-pyrimidin-7-yl)-2-hydroxycyclopentyl)methyl sulfamate]: the “Doses at which LFT increases were dose limiting” value in data set [1] (Schedule A (QD×5), Cycle 1, AST, ALT, ALP and bilirubin) is “exceeding 50 mg/m^2”. Besides, the “Grade 3 and 4 LFT elevations, patients who both died during first week of treatment” value in data set [1] (Schedule A, one at 61 mg/m^2, one at 83 mg/m^2) was found to be 2 patients. Moreover, in data set [1] (Schedule D: Days 1, 8, 15, 3-hr infusion, 21-day cycle, solid tumors), the “Dose, MTD not reached (→)” value was at least 196 mg/m^2. In addition, the “Findings: Prolonged stable disease in (tumor, cycles)” value in data set [1] (Schedule D: Days 1, 8, 15, 3-hr infusion) was “Colon cancer (6+ cycles); also recorded: NSCLC^5 (5+ cycles)”; in data set [1] (Schedules A, B, C (findings cell spans the three schedules)), “Melanoma (7, 7, 10 cycles); also recorded: SCLC^5 (7 cycles),; also recorded: CRC^5 (5, 5, 9 cycles),; also recorded: Breast (5, 7 cycles); also recorded: Head and Neck (7 cycles)”; in data set [4] (Schedule A: Days 1, 4, 8, 11), “Melanoma (5, 6, 6, 6, 10, 12 cycles)”; in data set [4] (Schedule B: Days 1, 8, 15), “Melanoma (11+ cycles)”. In addition, the “DLTs occurred (Grade 3 LFTs)” value in data set [1] (human, 21 days) is 2; in data set [1], “Three DLTs”. In addition, the Findings result in data set [2] (Schedule A: Days 1, 2, 8, 9, Hodgkin's Lymphoma (7 cycles)) was “Partial remission in Hodgkin's”. The “Adverse event in one patient (did not contribute to definition of MTD)” value in data set [2] (Schedule A, 110 mg/m^2 expansion cohort) is “Grade 3 AST and ALT elevation”. Besides, in data set [2] (Schedule B: Days 1, 4, 8, 11, as of Oct. 7, 2011), the DLTs observed result was “no DLTs have been observed”. In addition, the DLTs result in data set [2] (Schedule C: Days 1 and 8, at 196 mg/m^2) was “One DLT occurred on Schedule C at 196 mg/m^2 (reversible Grade 3 renal failure)”; in data set [3] (Schedule A: Days 1, 3, 5, at 78 mg/m^2), “Two DLTs occurred at 78 mg/m^2 (multi-organ failure and reversible elevation of ALT)”. In data set [3] (setting [5]), the “Kind of DLTs” value is “lactic acidosis and hypotension, GI necrosis, and acute renal failure”. Besides, the “Number of DLTs” value in data set [3] (setting [5]) is reported as “Four DLTs in three patients”; in data set [4] (in vivo), “two DLTs have occurred”. The “MTD (maximum tolerated dose)” value in data set [3] (Schedule B: Days 1, 4, 8, 11 of 21-day cycle, AML, MDS) turned out to be 83 mg/m^2.
